Test results as given in paper PMC5839718 (The Journal of General Physiology, 2018).

Legend:
[1] = target: α4β2 nAChR from β-6-α-9-β-6-α and α4^VFL (1:25) (Homo sapiens, UniProt P17787+P43681, H142V/Q150F/T152L); test: two-electrode voltage-clamp, oocytes, β-6-α-9-β-6-α and α4^VFL 1:25; type: cell-based; conditions: β-6-α-9-β-6-α + α4^VFL 1:25; biphasic fit
[2] = target: α4β2 nAChR from β-3a-α and α4 (1:1) (Homo sapiens, UniProt P17787+P43681); test: two-electrode voltage-clamp, oocytes, β-3a-α and α4; type: cell-based; conditions: β-3a-α + α4; biphasic fit
[3] = target: α4β2 nAChR from β-6-α and α4^VFL (1:25) (Homo sapiens, UniProt P17787+P43681, H142V/Q150F/T152L); test: two-electrode voltage-clamp, oocytes, β-6-α and α4^VFL 1:25; type: cell-based; conditions: β-6-α + α4^VFL 1:25; biphasic fit
[4] = target: α4β2 nAChR from β-6a-α and α4 (1:1) (Homo sapiens, UniProt P17787+P43681); test: two-electrode voltage-clamp, oocytes, β-6a-α and α4; type: cell-based; conditions: β-6a-α + α4; biphasic fit
[5] = target: α4β2 nAChR from β-0a-α and α4 (1:1) (Homo sapiens, UniProt P17787+P43681); test: two-electrode voltage-clamp, oocytes, β-0a-α and α4; type: cell-based; conditions: β-0a-α + α4; biphasic fit
[6] = target: α4β2 nAChR from β-6-α-9-β-6-α and α4^VFL (1:5) (Homo sapiens, UniProt P17787+P43681, H142V/Q150F/T152L); test: two-electrode voltage-clamp, oocytes, β-6-α-9-β-6-α and α4^VFL 1:5; type: cell-based
Sequence of α4β2 nAChR from β-6-α-9-β-6-α and α4^VFL (1:5) (P17787 26-502): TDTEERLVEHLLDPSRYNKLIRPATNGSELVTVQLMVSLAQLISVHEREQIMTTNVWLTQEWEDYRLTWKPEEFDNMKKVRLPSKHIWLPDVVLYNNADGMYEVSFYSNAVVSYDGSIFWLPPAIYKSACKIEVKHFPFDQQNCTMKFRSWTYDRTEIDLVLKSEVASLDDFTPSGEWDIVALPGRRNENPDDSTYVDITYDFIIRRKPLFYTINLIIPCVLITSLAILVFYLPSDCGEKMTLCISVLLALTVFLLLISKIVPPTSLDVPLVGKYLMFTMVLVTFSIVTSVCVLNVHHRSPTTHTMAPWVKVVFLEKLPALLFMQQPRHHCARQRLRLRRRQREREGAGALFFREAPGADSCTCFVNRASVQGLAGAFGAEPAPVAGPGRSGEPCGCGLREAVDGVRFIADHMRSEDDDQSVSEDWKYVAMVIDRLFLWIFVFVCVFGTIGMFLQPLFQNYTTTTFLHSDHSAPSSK
Sequence of α4β2 nAChR from β-6-α-9-β-6-α and α4^VFL (1:5) (P43681 27-627, stated change not applied): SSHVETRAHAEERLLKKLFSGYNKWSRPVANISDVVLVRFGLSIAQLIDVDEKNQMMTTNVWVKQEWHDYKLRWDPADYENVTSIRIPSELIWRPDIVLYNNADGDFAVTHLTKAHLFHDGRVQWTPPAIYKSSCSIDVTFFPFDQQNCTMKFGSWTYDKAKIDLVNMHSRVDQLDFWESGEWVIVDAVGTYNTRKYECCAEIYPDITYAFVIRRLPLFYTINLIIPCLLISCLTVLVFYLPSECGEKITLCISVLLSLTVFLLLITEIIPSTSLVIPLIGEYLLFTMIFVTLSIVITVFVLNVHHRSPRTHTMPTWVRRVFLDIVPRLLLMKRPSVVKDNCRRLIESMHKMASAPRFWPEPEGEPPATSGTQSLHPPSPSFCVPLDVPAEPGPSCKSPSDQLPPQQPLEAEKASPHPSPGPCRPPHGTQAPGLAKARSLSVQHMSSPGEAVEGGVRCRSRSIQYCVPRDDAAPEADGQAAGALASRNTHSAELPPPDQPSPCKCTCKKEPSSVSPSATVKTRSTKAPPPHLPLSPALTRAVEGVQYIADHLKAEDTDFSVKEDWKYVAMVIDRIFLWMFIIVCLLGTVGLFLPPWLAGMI
Sequence of α4β2 nAChR from β-6-α-9-β-6-α and α4^VFL (1:5) (P43681 34-627 H142V/Q150F/T152L limits assumed): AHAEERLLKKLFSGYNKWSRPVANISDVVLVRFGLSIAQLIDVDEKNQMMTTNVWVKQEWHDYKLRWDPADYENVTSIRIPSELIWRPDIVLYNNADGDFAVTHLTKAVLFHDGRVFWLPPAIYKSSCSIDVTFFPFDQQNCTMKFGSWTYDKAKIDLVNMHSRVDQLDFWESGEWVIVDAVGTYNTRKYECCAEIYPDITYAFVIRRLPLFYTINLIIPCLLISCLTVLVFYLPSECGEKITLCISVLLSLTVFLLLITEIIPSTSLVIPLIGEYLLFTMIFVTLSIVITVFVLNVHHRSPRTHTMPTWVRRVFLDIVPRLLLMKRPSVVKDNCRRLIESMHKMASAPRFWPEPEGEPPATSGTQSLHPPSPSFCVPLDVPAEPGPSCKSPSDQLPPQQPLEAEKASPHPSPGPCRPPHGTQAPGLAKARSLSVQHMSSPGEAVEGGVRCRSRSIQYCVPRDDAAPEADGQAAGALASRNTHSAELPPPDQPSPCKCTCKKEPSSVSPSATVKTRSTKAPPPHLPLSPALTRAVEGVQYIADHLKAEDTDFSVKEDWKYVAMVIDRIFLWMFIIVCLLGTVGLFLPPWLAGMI

[7] = target: α4β2 nAChR from β-6-α-9-β-6-α and α4 (1:1) (Homo sapiens, UniProt P17787+P43681); test: two-electrode voltage-clamp, oocytes, β-6-α-9-β-6-α and α4; type: cell-based; conditions: β-6-α-9-β-6-α + α4
[8] = target: α4β2 nAChR from β-6-α-9-β-6-α and α4^VFL (1:1) (Homo sapiens, UniProt P17787+P43681, H142V/Q150F/T152L); test: two-electrode voltage-clamp, oocytes, β-6-α-9-β-6-α and α4^VFL 1:1; type: cell-based
Sequence of α4β2 nAChR from β-6-α-9-β-6-α and α4^VFL (1:1) (P17787 26-502): as the sequence (P17787 26-502) above
Sequence of α4β2 nAChR from β-6-α-9-β-6-α and α4^VFL (1:1) (P43681 27-627, stated change not applied): as the sequence (P43681 27-627, stated change not applied) above
Sequence of α4β2 nAChR from β-6-α-9-β-6-α and α4^VFL (1:1) (P43681 27-627 H142V/Q150F/T152L): as the sequence (P43681 27-627, stated change not applied) above, with H116V, Q124F, T126L counted along it

[9] = target: α4β2 nAChR from β-3a-α alone (Homo sapiens, UniProt P17787+P43681); test: two-electrode voltage-clamp, oocytes, β-3a-α alone; type: cell-based
[10] = test system: (α4)2(β2)3 nAChR from α4 and β2 (1:4); conditions: 10 µM ACh, ref Timmermann et al. (2012); cited from earlier work
[11] = target: Ls-AChBP; conditions: read-out: NS9283 Ki at Ls-AChBP; ref Olsen et al., 2014; cited from earlier work

Sequence of α4β2 nAChR from β-6-α-9-β-6-α and α4^VFL (1:25) (P17787 26-502): as the sequence (P17787 26-502) above
Sequence of α4β2 nAChR from β-6-α-9-β-6-α and α4^VFL (1:25) (P43681 27-627, stated change not applied): as the sequence (P43681 27-627, stated change not applied) above
Sequence of α4β2 nAChR from β-6-α-9-β-6-α and α4^VFL (1:25) (P17787 26-502): as the sequence (P17787 26-502) above
Sequence of α4β2 nAChR from β-6-α-9-β-6-α and α4^VFL (1:25) (P43681 27-627, stated change not applied): as the sequence (P43681 27-627, stated change not applied) above
Sequence of α4β2 nAChR from β-6-α-9-β-6-α and α4^VFL (1:25) (P43681 34-627 H142V/Q150F/T152L limits assumed): as the sequence (P43681 34-627 H142V/Q150F/T152L limits assumed) above

Row | Compound | ACh Frac (first component fraction) [1] | ACh Frac (first component fraction) [2] | ACh Frac (first component fraction) [3] | ACh Frac (first component fraction) [4] | ACh Frac (first component fraction) [5] | ACh Frac (first component fraction) ([6]; β-6-α-9-β-6-α + α4^VFL 1:5, biphasic fit) | mean AChmax-evoked currents [7] | ACh Frac (first component fraction) ([7]; biphasic fit) | ACh Frac (first component fraction) ([8]; β-6-α-9-β-6-α + α4^VFL 1:1, biphasic fit) | Emax ([9]; read-out: ACh Emax) [%] | ACh Frac (first component fraction) ([9]; β-3a-α alone, biphasic fit) | NS9283 effect on AChcontrol-evoked current amplitudes at […] or higher [10] | Ki [11] [µM] | EC50 ([6]; NS9283 pEC50, β-6-α-9-β-6-α + α4^VFL 1:5, coapplied with 10 µM ACh) [µM] | EC50 ([8]; NS9283 pEC50, β-6-α-9-β-6-α + α4^VFL 1:1, coapplied with 10 µM ACh) [µM]
1 | CC(=O)OCC[N+](C)(C)C [ACh, acetylcholine] | 0.40 ± 0.12 | 0.11 ± 0.02 | 0.39 ± 0.05 | 0.059 ± 0.018 | 0.053 ± 0.028 | 0.32 ± 0.13 | 1–2 μA | 0.035 ± 0.020 | 0.41 ± 0.09 | 103 ± 1 | 0.64 ± 0.11 |  |  |  | 
2 | N#Cc1cccc(-c2nc(-c3cccnc3)no2)c1 [NS9283, 3-(3-(pyridine-3-yl)-1,2,4-oxadiazol-5-yl)benzonitrile] |  |  |  |  |  |  |  |  |  |  |  | inhibition | 67 | 7.94 | 10
